Measured values from ChEMBL document CHEMBL1201862, “PubChem BioAssay data set” (2004).
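In this assay, cells in 96-well plates receive the compound at five concentrations for 48 hours. Endpoints are linearly interpolated between the surrounding concentrations. GI50: concentration for 50% inhibition of growth.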 Active and inactive are the calls of the source. Cut-off read from the data, not from the text of the source: active = GI50 up to about 1.1 µM and inactive = higher.

Tests used:
Test in all cases: DTP human tumour cell line panel, 48 h
SF-295 = test system: SF-295
TK-10 = test system: TK-10
NCI-H23 = test system: NCI-H23
T47D = test system: T47D
KM12 = test system: KM12
SK-MEL-5 = test system: SK-MEL-5
NCI-H522 = test system: NCI-H522
HOP-92 = test system: HOP-92
SK-MEL-2 = test system: SK-MEL-2
IGROV-1 = test system: IGROV-1
MOLT-4 = test system: MOLT-4
HCC 2998 = test system: HCC 2998
RXF 393 = test system: RXF 393
UACC-62 = test system: UACC-62
OVCAR-3 = test system: OVCAR-3
A549 = test system: A549
EKVX = test system: EKVX
OVCAR-5 = test system: OVCAR-5
NCI-H226 = test system: NCI-H226
HOP-62 = test system: HOP-62

SMILES | GI50 (SF-295) | GI50 (TK-10) | GI50 (NCI-H23) | GI50 (T47D) | GI50 (KM12) | GI50 (SK-MEL-5) | GI50 (NCI-H522) | GI50 (HOP-92) | GI50 (SK-MEL-2) | GI50 (IGROV-1) | GI50 (MOLT-4) | GI50 (HCC 2998) | GI50 (RXF 393) | GI50 (UACC-62) | GI50 (OVCAR-3) | GI50 (A549) | GI50 (EKVX) | GI50 (OVCAR-5) | GI50 (NCI-H226) | GI50 (HOP-62)
CN1CCCC(C(=O)OCC(=O)C2(O)CCC3C4CCC5=CC(=O)CCC5(C)C4C(O)CC32C)C1 (stereo not given) | 19.9 µM (inactive) | 12.5 µM (inactive) | 20.5 µM (inactive) | 10.3 µM (inactive) | 25.2 µM (inactive) | 19.1 µM (inactive) | 17.3 µM (inactive) | 50.9 µM (inactive) | 19.5 µM (inactive) | 23.4 µM (inactive) | 18.7 µM (inactive) | 7.89 µM (inactive) | 8.49 µM (inactive) | 18.1 µM (inactive) | 17 µM (inactive) | 16.4 µM (inactive) | 17.1 µM (inactive) | 18.1 µM (inactive) | 17.1 µM (inactive) | 14.6 µM (inactive)
COc1cc(/C=N/n2c(-c3ccccc3)n[nH]c2=O)cc(OC)c1OC | 0.745 µM (active) | 4.17 µM (inactive) | 4.41 µM (inactive) | > 100 µM (inactive) | 0.425 µM (active) | 0.815 µM (active) | 0.675 µM (active) | 13.8 µM (inactive) | 3.87 µM (inactive) | 2.43 µM (inactive) | 0.733 µM (active) | > 100 µM (inactive) | 4.94 µM (inactive) | 2.34 µM (inactive) | 4.63 µM (inactive) | 4.95 µM (inactive) | 11.4 µM (inactive) | 22.4 µM (inactive) | > 41.3 µM (inactive) | 4.93 µM (inactive)
C=CCC1(C)CCCN(Cc2ccccc2)C1=O (stereo not given) | > 10 µM (inactive) | > 10 µM (inactive) | > 10 µM (inactive) | > 10 µM (inactive) | > 10 µM (inactive) | 0.41 µM (active) | > 10 µM (inactive) | > 10 µM (inactive) | > 10 µM (inactive) | 0.863 µM (active) | > 10 µM (inactive) | > 10 µM (inactive) | > 10 µM (inactive) | > 10 µM (inactive) | > 10 µM (inactive) | > 10 µM (inactive) | > 10 µM (inactive) | > 10 µM (inactive) | > 10 µM (inactive) | > 10 µM (inactive)
COC(=O)c1c[nH]c2c1-c1cc(C(=O)OCc3ccccc3)n(S(=O)(=O)c3ccc(C)cc3)c1C(=O)C2=O | 0.17 µM (active) | 2 µM (inactive) | 0.149 µM (active) | 0.871 µM (active) | 0.25 µM (active) | 0.132 µM (active) | 0.207 µM (active) | 0.27 µM (active) | 0.195 µM (active) | 0.372 µM (active) | 0.356 µM (active) | 0.578 µM (active) | 0.214 µM (active) | 0.188 µM (active) | 0.0316 µM (active) | 0.716 µM (active) | 0.173 µM (active) | 1.56 µM (inactive) | 0.729 µM (active) | 0.376 µM (active)
